Reference: US11850238B2, “Use of a thienopyridone derivative in the treatment of adrenoleukodystrophy or adrenomyeloneuropathy” (POXEL, priority 2020, dated 2023)

How the values were obtained:
[1] = system: ABCD2; assay: Western blot of ABCD2 expression in AMN fibroblasts; assay type: cell-based, human; conditions: AMN fibroblasts, 5, 10, 25 μM, vs control and untreated AMN fibroblasts; FIG. 2
Method: More specifically, protein extraction was performed as follows.
The cells were washed with cold Tris-buffered saline (20 mM Trizma base and 137 mM NaCl, pH 7.5) and lysed in 1×SDS sample-loading buffer (62.5 mM Trizma base, 2% [w/v] SDS, 10% glycerol), and after sonication and centrifugation at 15,000 g for 5 min, the supernatant was used for the immunoblot assay. The protein concentration of samples was determined with the detergent compatible protein assay reagent (Bio-Rad) using BSA as the standard. The sample was boiled for 3 min with 0.1 volumes of 10% β mercaptoethanol and 0.5% bromphenol blue mix. Then, 40 μg of total cellular protein was resolved by electrophoresis on 8 or 12% polyacrylamide gels, electrotransferred and blocked with Tween 20-containing Tris-buffered saline (TBST; 10 mM Trizma base, pH 7.4, 1% Tween 20, and 150 mM NaCl) with 5% skim milk. After incubation with antibodies against ABCD2, ABCD3, and (β-actin at 4^0 overnight, the membranes were then washed with TBST and incubated with horseradish peroxidase-conjugated anti-rabbit or mouse IgG for 1 h at room temperature. The membranes were detected by autoradiography using ECL-plus (Amersham Biosciences) after washing with TBST buffer.
(§1) The experiments described in Examples 4 and 6 were performed with metformin by the same lab and described by Singh et al. in Journal of Neurochemistry, 2016; 138, 86-100.

[2] = system: ALD-KO mouse-mixed glial cells; assay: Hexacosanoic acid (VLCFA) level in ALD-KO mouse mixed glial cells; assay type: cell-based; conditions: 25 μM, FIG. 3
Method: The inventors carried out a study of the measurement of VLCFA accumulation in AMN mouse-mixed glial cells when they are not undergoing any treatment and when they are treated with PXL770 at different doses.
C57BL6 mouse breeding pairs were purchased from Jackson Laboratory (Bar Harbor, ME) and maintained at the Henry Ford Health System (HFHS) animal facility. All animal procedures were approved by the HFHS Animal Review Committee and all animals received humane care in compliance with the HFHS experimental guidelines and the National Research Council's criteria for humane care (Guide for Care and Use of Laboratory Animals). Mouse with Abcd1 gene knocked-out were raised and used to extract mixed glial cells. Primary astrocyte-enriched cultures were prepared from the whole cortex of 1-day-old C57BL/6 mice. Briefly, the cortex was rapidly dissected in ice-cold calcium/magnesium-free HBSS at pH 7.4 as described previously. The tissue was minced, incubated in HBSS containing trypsin (2 mg/ml) for 20 min, and washed twice in plating medium containing 10% FBS and 10 μg/ml gentamicin and then disrupted by triturating through a Pasteur pipette, after which cells were seeded in 75-cm^2 culture flasks (Falcon, Franklin, NJ). […]
Hexacosanoic acid level in six groups of mixed glial cells was measured. […]

[3] = system: ALD patient-derived lymphocytes; assay: Hexacosanoic acid (VLCFA) level in ALD patient-derived lymphocytes; assay type: cell-based, human
Method: After studies on cells from patients with the […] of ALD (AMN) the inventors replicated the same study method as in example 1 to analyze the effect of PXL770 on cells from X-ALD patients (severe inflammatory phenotype).
The experiments described in Examples 3 and 7 were performed with metformin by the same lab and described by Singh et al. in Journal of Neurochemistry, 2016; 138, 86-100.

[4] = system: ABCD2; assay: Western blot of ABCD2 expression in ALD patient fibroblasts; assay type: cell-based, human; conditions: especially at low concentration (5 μM), FIG. 6
Method: as §1

[5] = system: ABCD1-KO mice; assay: In vivo X-ALD mouse, 60 days: VLCFA (C26:0) in brain cortex and plasma; conditions: male ABCD1-KO mice, 75 mg/kg oral gavage twice a day
Method: Male ABCD1-KO mice (n=15) were treated with oral gavage of PXL770 (75 mg/kg) twice a day, every day for 60 days. Untreated ABCD1-KO mice (n=15) and wild-type (WT) mice (n=12) served as controls. Post-treatment mice were sacrificed and brain cortex and plasma were collected for VLCFA analysis. The analysis was performed according to the standardized protocols of the Lipidomics Core Facility and data are expressed as VLCFA μg/ml levels. Hexacosanoic acid (C26:0) was selected as representative for VLCFAs.
A one-way ANOVA with Dunnett's multiple comparison test was performed to assess the effect of PXL770 on brain's VLCFAs (**** p<0.0001, *** p<0.001). A Kruskal-Wallis test with Dunn's multiple comparison test was performed to assess the effect of PXL770 on plasma's VLCFAs (**** p<0.0001, […]).

[6] = ALD lymphocytes, increasing concentrations, FIG. 5

O=c1[nH]c2sc(Cl)c(-c3ccc4c(c3O)CCCC4)c2c([O-])c1-c1ccccc1.[K+] [PXL770, monohydrate potassium salt of 2-chloro-4-hydroxy-3-(5-hydroxytetralin-6-yl)-5-phenyl-7H-thieno[2,3-b]pyridin-6-one]
expression of ABCD2 (Western blot) [1]: overexpression | accumulation of hexacosanoic acid [2]: decreases | level of hexacosanoic acid [3, 6]: decreases | level of hexacosanoic acid compared to healthy controls [3, 6]: same level as that present in lymphocytes of healthy controls | VLCFA content, normalization ([3]; ALD patient cells, 5 μM): normalization effect | expression of ABCD2 (Western blot) [4]: overexpression | VLCFA accumulation in the brain cortex ([5]; FIG. 7): significantly reduces | VLCFA accumulation in the plasma ([5]; FIG. 8): significantly reduces
